Reference: PMC4195615, “Inhibition Effect of a Custom Peptide on Lung Tumors” (PLoS ONE, 2014)

Columns and labels:
[1] = system: normal lung cell versus cancerous lung cell; conditions: general statement, no reference given; cited from earlier work
Description: IC50 is the chemical concentration that produces 50% cell survival. The selectivity index of a lung cancer drug is a measure of how specific its killing action is to cancer cells. It is the ratio of its IC50 for a normal lung cell to its IC50 for a cancerous lung cell.

[2] = 100 mg/m^2 in a three-week cycle; cited from earlier work
Description: Drugs presently in use to combat lung cancers have severe side effects because their toxicity is not sufficiently selective to cancer cells. For example, docetaxel administered at a dose of 100 mg/m^2 in a three-week cycle causes haematological toxicity (86% patients having grade 3 or 4 neutropenia).

[3] = system: human NCI-H460 cancer cells xenograft; assay: Nude mouse xenograft, post-treatment-only, comparison with docetaxel; conditions: for Mean tumor volume at week 4: 0.012 mmol/kg i.v. (CB1a 50 mg/kg, docetaxel 10 mg/kg), saline 5,400 mm^3; for Mean tumor volume at week 4 / Mean body weight at week 4 / Mean tumor weight as % of that in saline treated mice: 5 injections per week for 4 weeks; for Body weight course: compared with saline treated mice; for Mean body weight at week 5: data not shown; for Mean tumor weight as % of that in saline treated mice: week 4, sacrificed
MRC-5 normal cells = assay: Cell plate growth study, photographed; format: cell-based, human; conditions: 50 µM CB1a added after 4 days, photographed after 24 hours, 2×10^3 cells at start
Description: (§1) NCI-H460 cancer cells were grown on two cell plates (2×10^3 cells at start in each) – after 4 days, CB1a (50 µM) was added to one and not the other. […] This experiment was repeated but with normal cells. MRC-5 normal cells were grown on two cell plates (2×10^3 cells at start in each) – after 4 days, CB1a (50 µM) was added to one and not the other.
(§2) Photos A and B show without and with CB1a (50 µM), on NCI-H460 cancer cells, respectively. Photos C and D show without and with CB1a (50 µM), on MRC-5 normal cells, respectively. Initial cell concentrations on plates were 2×10^3 cells for all; photos were taken after 5 days incubation; where CB1a was applied it was done so at the end of day 4. Comparing A and B: one can note without CB1a there is significant cellular growth, as to be expected from a cancer cell line; with CB1a there is not, presumably because of a CB1a kill action against cancer cells.

NCI-H460 cancer cells [4] = assay: Cell plate growth study, photographed; format: cell-based, human; conditions: 50 µM CB1a added after 4 days, photographed after 24 hours, 2×10^3 cells at start
Description: as §1, §2

NCI-H460 cancer cells [5] = assay: Tumor-like spheroid (MCTS) formation, modified hanging drop method; format: cell-based, human; conditions: NCI-H460, 5×10^2 cells
Description: We used non-adhesive, bacterial culture-grade polystyrene Petri dishes. Approximately 5×10^2 NCI-H460 cancer cells (3×10^4 cells/ml) were deposited as a drop on the inner face of lids to 90 mm Petri dishes. These lids were then placed on their dishes, which were filled with 10 ml phosphate-buffered saline (PBS). A monolayer of NCI-H460 lung cancer cells was then de-attached by 0.25% Trypsin-EDTA. These dishes were then incubated at 37 C in a 5% CO2 incubator. This modified “hanging drop” method causes the cancer cells to grow in a tumor-like aggregation; which is called a MCTS. After 3 days incubation, CB1a was applied in different concentrations (5, 15, 30, 45 and 60 µM) to different plates and a photo was then taken of each plate after 36 hours. This methodology investigated the post-treatment of CB1a, after tumor formation. The pre-treatment effect of CB1a, before tumor formation, was also studied. CB1a was applied in different concentrations (5, 15, 30, 45 and 60 µM) to different plates and left for 30 minutes before the 0.25% Trypsin-EDTA de-attachment step. After this step, the plates were incubated for 3 days and 36 hours before being photographed.

[6] = system: human NCI-H460 cancer cells xenograft; assay: Nude mouse xenograft, pre-and-post-treatment of CB1a; format: in vivo; conditions: 50 mg/kg s.c.
Description: Afterwards, the animal test experiments were performed.
Six mice were pre-treated with CB1a (50 mg/kg) 3 times in one week prior to them being subcutaneously xenografted with human tumorigenic NCI-H460 lung cancer cells (0.2 ml; 1×10^6 cells/ml). A control was studied in which saline was used instead of CB1a (6 mice in this control group). The dose of CB1a/saline was continued after the xenograft: 5 times per week for 5 weeks. The CB1a/saline injection point was in the dorsolateral neck area and the xenograft cancer cells were transplanted into the abdominal flank area of the mouse (Figure 5A). The distance between these two points is far (∼4 cm) as compared to the length of the mouse (∼6 cm). This distance tested whether CB1a could effectively travel in the blood stream without being destroyed. […] 36 days after the human lung cancer cells were xenografted on to the mouse – the mean volume of the tumor in the CB1a treated mice was just 19.3% of the tumor in the saline treated mice (Figure 5C); the mean weight of the tumor in CB1a treated mice was just 9% of the tumor in saline treated mice (Figure 5D). In other words, the tumor was ∼80% smaller and ∼90% lighter in CB1a treated mice.

[7] = Pharmacokinetics of CB1a in rat blood by competitive ELISA; format: in vivo; conditions: Sprague-Dawley rats, 50 mg/kg i.v., competitive ELISA with 5C5H5 antibody
Text: Using this standard curve, an unknown concentration of CB1a in a test sample can then be found by finding its OD450nm (A/A0) value in an ELISA experiment. […] For our definitive standard curve, we used the one with a dilution rate of 1∶2000 and utilized this dilution rate when assaying test blood samples. We used a primary antibody dilution rate of 1∶5000.
Six […] male Sprague-Dawley rats (230–260 g; sourced from BioLASCO, Yilan, Taiwan) were housed (3 per cage) in a specific pathogen free animal room. The rats were intravenously injected with CB1a peptide (50 mg/kg) and blood samples were then collected from the tail vein of the rats at the following time points: 5, 20, 25, 38.5, 50, 60 and 240 minutes after the CB1a injection (6 samples taken at each of these time points). The blood samples were transferred to heparinized microcentrifuge tubes and centrifuged at 4,000 g for 5 minutes; then frozen for storage at −80°C.
The blood samples were analyzed via a competitive ELISA technique, rather than the more direct ELISA technique described earlier. Blood samples were diluted 100 fold and then mixed with a known concentration of CB1a antibody (2mg/ml in PBST buffer, including 1% BSA). […] The CB1a concentration recorded on the plate is added to the known CB1a concentration that is washed off, bound to the CB1a antibodies, to get the total CB1a concentration. […]

HFL1 cells = assay: In vitro toxicity to other normal cells; format: cell-based; conditions: data not shown
3T3/3T6 tissue cells = assay: In vitro toxicity to other normal cells; format: cell-based; conditions: data not shown
[8] = tumor-bearing nude mice, 0.012 mmol/kg i.v., n = 6
[9] = tumor-bearing nude mice, 0.012 mmol/kg i.v., 5 injections per week, n = 6
[10] = tumor-bearing nude mice, 0.012 mmol/kg i.v.

In the case of `CC(=O)O[C@@]12CO[C@@H]1C[C@H](O)[C@@]1(C)C(=O)[C@H](O)C3=C(C)[C@@H](OC(=O)[C@H](O)[C@@H](NC(=O)OC(C)(C)C)c4ccccc4)C[C@@](O)([C@@H](OC(=O)c4ccccc4)[C@H]21)C3(C)C` [docetaxel, reference compound], the “Selectivity index (SI) of drugs presently on the market” value [1] is given as “less than one”, the “Patients having grade 3 or 4 neutropenia (haematological toxicity)” value [2] is given as 86% and the “Mean tumor volume at week 4” value ([3]; n = 6) is given as 3,200 mm^3. The “Mean body weight at week 4” value [3, 8] was 25 g, the “Mean body weight at week 2 (maximum)” value [3, 9] was 27 g and the Body weight course [3, 10] was “weight loss”. For the same compound, the “Mean body weight at week 5” value [3, 10] was 21 g and the “Mean tumor weight as % of that in saline treated mice” value (shortened to “Mean tumor weight as % of that”) ([3]; 0.012 mmol/kg i.v., n = 6) was 73%.
In the case of `COc1cccc2c1C(=O)c1c(O)c3c(c(O)c1C2=O)C[C@@](O)(C(=O)CO)C[C@@H]3O[C@H]1C[C@H](N)[C@H](O)[C@H](C)O1` [doxorubicin], the “Selectivity index (SI) of drugs presently on the market” value [1] is given as “less than one”.
With “H-KWKVFKKIEKKWKVFKKIEKAGPKWKVFKKIEK-OH [CB1a]” the “Cell number on plate versus plate without CB1a” value (MRC-5 normal cells) was “does not kill these normal cells”, the “Cell number on plate versus plate without CB1a” value (NCI-H460 cancer cells [4]) was “significantly less cells” and the “Spheroid formation, post-treatment with CB1a” value (NCI-H460 cancer cells [5]; CB1a 5, 15, 30, 45, 60 µM applied after 3 days incubation, photo after 36 hours) was “tumor spheroids can still be observed”. For the same compound, the “Spheroid formation, pre-treatment with CB1a” value (NCI-H460 cancer cells [5]; CB1a 5-60 µM applied 30 minutes before de-attachment, higher CB1a concentrations) was “no spheroids form”, the “Mean tumor volume as % of that in saline treated mice” value ([6]; 36 days after xenograft, pre-and-post-treatment, n = 6) was 19.3% and the “Mean tumor weight as % of that” value ([6]; day 36, sacrificed, pre-and-post-treatment, n = 6) was 9%. The “Tumor lighter than in saline treated mice” value ([6]; day 36, pre-and-post-treatment) was ~90%, the “Tumor smaller than in saline treated mice” value ([6]; day 36, pre-and-post-treatment) was ~80% and the “Deaths during the experiment” value ([6]; nude mice, 3 times in week before xenograft then 5 times per week for 5 weeks, n = 6) was “None of the mice died”. The “Mean body weight compared with saline treated mice” value ([6]; nude mice, pre-and-post-treatment, n = 6) was “comparable to that of saline treated mice”, the “Time for which a CB1a concentration that can kill cancer cells (≥25 µM or ≥105 µg/ml) endures in rat blood” value [7] was “around 25 minutes” and the half-life ([7]; male, rat, iv, tail vein blood 5-240 minutes, n = 6) was 16.4 min. For the same compound, the “Killing of normal cells at concentrations that kill lung cancer cells” value (HFL1 cells) was “do not kill”, the “Killing of normal cells at concentrations that kill lung cancer cells” value (3T3/3T6 tissue cells) was “do not kill” and the “Mean tumor volume at week 4” value ([3]; n = 6) was 3,100 mm^3. For the same compound, the “Mean body weight at week 4” value [3, 8] was 30.5 g, the “Mean body weight at the start” value [3, 9] was 25.5 g and the Body weight course [3, 10] was “gained weight at the same trajectory as saline treated mice”. The “Mean body weight at week 5” value [3, 10] was 32 g and the “Mean tumor weight as % of that” value ([3]; 0.012 mmol/kg i.v., n = 6) was 59%.
